# In ChEMBL document CHEMBL3525924, “Cytochrome P450 3A-mediated microsomal biotransformation of 1α,25-dihydroxyvitamin D3 in mouse and human liver: drug-related induction and inhibition of catabolism” (Drug Metab Dispos, 2012):
# pIC50: −log10 of the molar value.
# System: not listed separately
# Experiment: Drug metabolism in dexamethasone treated CD1 mouse liver microsomes assessed as metabolite formation at 20 uM after 30 mins by LC/MS analysis in presence of NADPH and CYP1A2 inhibitor furafyline
# Format: ADME
# Settings: 0.5 h
row,Drug metabolism,SMILES
1,metabolite_detected,C=C1/C(=C\C=C2/CCC[C@]3(C)[C@@H]([C@H](C)C[C@@H](O)CC(C)(C)O)CC[C@@H]23)C[C@@H](O)C[C@@H]1O

# System: not listed separately
# Experiment: Drug metabolism in CD1 mouse liver microsomes assessed as metabolite formation at 20 uM after 30 mins by LC/MS analysis in presence of NADPH and CYP2C inhibitor sulfaphenazole
# Format: ADME
# Settings: 0.5 h
row,Drug metabolism,SMILES
1,metabolite_detected,C=C1/C(=C\C=C2/CCC[C@]3(C)[C@@H]([C@H](C)C[C@@H](O)CC(C)(C)O)CC[C@@H]23)C[C@@H](O)C[C@@H]1O

# System: not listed separately
# Experiment: Drug metabolism in prednisone treated CD1 mouse liver microsomes assessed as metabolite formation at 20 uM after 30 mins by LC/MS analysis in presence of NADPH and CYP2C inhibitor sulfaphenazole
# Format: ADME
# Settings: 0.5 h
row,Drug metabolism,SMILES
1,metabolite_detected,C=C1/C(=C\C=C2/CCC[C@]3(C)[C@@H]([C@H](C)C[C@@H](O)CC(C)(C)O)CC[C@@H]23)C[C@@H](O)C[C@@H]1O

# System: Liver microsome
# Experiment: Drug metabolism in human liver microsomes assessed as IC50 for tamoxifen-mediated inhibition of metabolite formation at 20 uM after 30 mins by LC/MS analysis
# Format: ADME
# Settings: 0.5 h
row,pIC50,SMILES
1,< 4.40,C=C1/C(=C\C=C2/CCC[C@]3(C)[C@@H]([C@H](C)C[C@@H](O)CC(C)(C)O)CC[C@@H]23)C[C@@H](O)C[C@@H]1O

# System: not listed separately
# Experiment: Drug metabolism in prednisone treated CD1 mouse liver microsomes assessed as metabolite formation at 20 uM after 30 mins by LC/MS analysis in presence of NADPH and CYP2E inhibitor di-ethyldithiocarbamate
# Format: ADME
# Settings: 0.5 h
row,Drug metabolism,SMILES
1,metabolite_detected,C=C1/C(=C\C=C2/CCC[C@]3(C)[C@@H]([C@H](C)C[C@@H](O)CC(C)(C)O)CC[C@@H]23)C[C@@H](O)C[C@@H]1O

# System: not listed separately
# Experiment: Drug metabolism in CD1 mouse liver microsomes assessed as metabolite formation at 20 uM after 30 mins by LC/MS analysis in presence of NADPH and CYP2E inhibitor di-ethyldithiocarbamate
# Format: ADME
# Settings: 0.5 h
row,Drug metabolism,SMILES
1,metabolite_detected,C=C1/C(=C\C=C2/CCC[C@]3(C)[C@@H]([C@H](C)C[C@@H](O)CC(C)(C)O)CC[C@@H]23)C[C@@H](O)C[C@@H]1O

# System: not listed separately
# Experiment: Drug metabolism in prednisone treated CD1 mouse liver microsomes treated with 20 uM of 1alpha,25(OH)2D3 assessed as metabolite formation after 30 mins by LC/MS analysis in presence of NADPH
# Format: ADME
# Settings: 0.5 h
row,Drug metabolism,SMILES
1,metabolite_detected,C=C1/C(=C\C=C2/CCC[C@]3(C)[C@@H]([C@H](C)C[C@@H](O)CC(C)(C)O)CC[C@@H]23)C[C@@H](O)C[C@@H]1O

# System: Liver microsome
# Experiment: Drug level in human liver microsomes assessed as retention time treated with 20 uM of 1alpha,25(OH)2D3 after 30 mins by LC/MS analysis in presence of NADPH
# Format: ADME
# Settings: 0.5 h
row,Retention_time [min],SMILES
1,9.7,C=C1/C(=C\C=C2/CCC[C@]3(C)[C@@H]([C@H](C)C[C@@H](O)CC(C)(C)O)CC[C@@H]23)C[C@@H](O)C[C@@H]1O

# System: not listed separately
# Experiment: Drug metabolism in dexamethasone treated CD1 mouse liver microsomes assessed as metabolite formation at 20 uM after 30 mins by LC/MS analysis in presence of NADPH and CYP2E inhibitor di-ethyldithiocarbamate
# Format: ADME
# Settings: 0.5 h
row,Drug metabolism,SMILES
1,metabolite_detected,C=C1/C(=C\C=C2/CCC[C@]3(C)[C@@H]([C@H](C)C[C@@H](O)CC(C)(C)O)CC[C@@H]23)C[C@@H](O)C[C@@H]1O

# System: Liver microsome
# Experiment: Drug metabolism in human liver microsomes assessed as IC50 for clarithromycin-mediated inhibition of metabolite formation at 20 uM after 30 mins by LC/MS analysis
# Format: ADME
# Settings: 0.5 h
row,pIC50,SMILES
1,< 4.52,C=C1/C(=C\C=C2/CCC[C@]3(C)[C@@H]([C@H](C)C[C@@H](O)CC(C)(C)O)CC[C@@H]23)C[C@@H](O)C[C@@H]1O

# System: Liver microsome
# Experiment: Drug metabolism in human liver microsomes assessed as IC50 for docetaxel-mediated inhibition of metabolite formation at 20 uM after 30 mins by LC/MS analysis
# Format: ADME
# Settings: 0.5 h
row,pIC50,SMILES
1,7.42,C=C1/C(=C\C=C2/CCC[C@]3(C)[C@@H]([C@H](C)C[C@@H](O)CC(C)(C)O)CC[C@@H]23)C[C@@H](O)C[C@@H]1O

# System: not listed separately
# Experiment: Drug metabolism in prednisone treated CD1 mouse liver microsomes assessed as metabolite formation at 20 uM after 30 mins by LC/MS analysis in presence of NADPH and CYP2B inhibitor orphenadrine
# Format: ADME
# Settings: 0.5 h
row,Drug metabolism,SMILES
1,metabolite_detected,C=C1/C(=C\C=C2/CCC[C@]3(C)[C@@H]([C@H](C)C[C@@H](O)CC(C)(C)O)CC[C@@H]23)C[C@@H](O)C[C@@H]1O

# System: not listed separately
# Experiment: Drug metabolism in dexamethasone treated CD1 mouse liver microsomes assessed as metabolite formation at 20 uM after 30 mins by LC/MS analysis in presence of NADPH and CYP2D inhibitor quinine
# Format: ADME
# Settings: 0.5 h
row,Drug metabolism,SMILES
1,metabolite_detected,C=C1/C(=C\C=C2/CCC[C@]3(C)[C@@H]([C@H](C)C[C@@H](O)CC(C)(C)O)CC[C@@H]23)C[C@@H](O)C[C@@H]1O

# System: not listed separately
# Experiment: Drug metabolism in CD1 mouse liver microsomes assessed as metabolite formation at 20 uM after 30 mins by LC/MS analysis in presence of NADPH and CYP1A2 inhibitor furafyline
# Format: ADME
# Settings: 0.5 h
row,Drug metabolism,SMILES
1,metabolite_detected,C=C1/C(=C\C=C2/CCC[C@]3(C)[C@@H]([C@H](C)C[C@@H](O)CC(C)(C)O)CC[C@@H]23)C[C@@H](O)C[C@@H]1O
